The values that follow are results of earlier work, collected in patent publication US20180168149A1, “INSECTICIDAL COMPOSITIONS” (HOMS, LLC, priority 2015, published 2018).

The test system of this series is male rats.

On to `C=C(C)[C@H]1CC=C(C)CC1` [d-limonene], for which the “tumors on chronic exposure” value is reported as “significant incidence of renal tubular tumors”.
